# Test results from patent US8981179B2, “Transgenic non-human animal and uses thereof” (Sanofi, priority 2009, dated 2015).
# Experiments:
# CRE Luc reporter = assay: In vivo bioluminescence imaging of CreLuc transgenic mouse after isoproterenol; conditions: bioimaging
# Experimental: Administration of isoproterenol (right panel) increases spinal cord expression of the CRE Luc reporter compared to basal levels (left panel). The bioluminescent detection is represented visually on a white-light image of the animal as a pseudocolor representation in grayscale. […] For in vivo assays, the animals are dosed with luciferin only and then bioimaged on an IVIS bioimager to get baseline signal. The animals are then dosed with compound, and then bioimaged again at a set timepoint to examine the effects of the compound on the luciferase signal. Data can be analyzed as the fold induction of the induced signal versus the baseline signal. For the ex vivo assays, mice are dosed with either compound or vehicle, and then at a set timepoint, tissues are harvested and frozen. The tissues can then be homogenized and a luciferase assay such as Promega Luciferase assay system (Promega cat #E1500) run on the tissue extracts and the assay read on a luminometer such as the Topcount. Data can be analyzed as the relative light units per μg protein, comparing vehicle versus compound groups.
# ADβR [1] = assay: Isolated CD4+ T cells CreLuc luciferase assay, ADβR agonist; type: cell-based, mouse; conditions: line 64 CD4+ T cells, anti CD3 24 hours, 10 μM, 4 hours
# Experimental: The effects of different Gs agonists on luciferase levels in anti CD3 stimulated CD4+ T cells isolated from CreLuc mice was studied (FIG. 19). Whole splenocyte populations were prepared by mechanical disruption. CD4+ cells were then isolated by MACS Magnetic Separation with Positive Selection (Miltenyi Biotec cat#130-049-201). The cells, 1.5×10^5 per well, were then plated on 96 well white opaque plates and then stimulated with anti CD3 antibodies (BD Pharmingen cat#553058). After 24 hours, compounds were added for an additional 4 hours. Gs agonists for DP (B[…]), EP2 (EX00000173A) and ADβR (isoproterenol) were all used at 10 μM. Forskolin 5 μM, and rolipram 10 μM. BrightGlo (Promega, Madison, Wis., cat#E2610) was added and the assay was read on the TopCount. A 25-fold increase is observed in cells treated with forskolin and rolipram. […] The transgene was responsive to specific Gs agonists as well as general modulators of the cAMP pathway.
# [2] = tested on: cAMP pathway (CreLuc luciferase reporter) in brain slices; assay: Whole brain slice luminescence, cAMP pathway activators; type: cell-based, mouse; conditions: line 187, 1 uM isoproterenol, 2 days
# Experimental: In general, brains from CreLuc mice can be harvested and then either cut into slices on a microtome or various subregions can also be dissected out and then sliced on a microtome. The slices can then be incubated with different compounds such as forskolin and rolipram, or GPCR specific compounds. Luciferase levels can then be measured with an IVIS bioimager or a photomultiplier with a carousel to take quantitative timecourse measurements.
# Thus, isoproterenol was used to increase the luciferase signal window which allows for screening GPCR specific compounds such as Gi agonists.
# Compound activity can also be quantitated over time in a viable brain slice and luciferase expression can be visualized by a bioimager. […] Forskolin is a general activator of cAMP.
# [3] = tested on: β adrenergic receptors (ADβR); assay: Primary cortical neurons CreLuc luciferase assay, Gs modulation via ADβR; type: cell-based, mouse; conditions: cortical neurons line 187, day 3, 10 μM, 4 hours
# From the text: A general schematic of the workflow for the isolation and compound treatment of primary neuronal cells from the CreLuc model is depicted in FIG. 9. Cortices or other brain subregions are removed from embryos, usually embryonic (E) day 17 or 18, but also as early as E14. The individual neurons are then isolated and plated onto 96 well assay plates. Assays are run either in triplicate or quadruplicate. The assays are run from day 3 in culture up until day 7 or day 10 in culture depending on the expression levels of the target GPCR. Compounds are added to the plates then at a set timepoint, Bright Glo (Promega, Cat #E2610) is added to the plates and the assay is then run on a TopCount or other luminometer.
# Primary cell cultures from the CreLuc mice may be used to screen compounds that are capable of modulating Gs coupled receptors. Neurons were isolated from the cortices of line 187 E18 embryos. […] The assay was run in triplicates on day three in culture. Forskolin was used at 5 μM, rolipram at 10 μM and the Gs agonists, ADβR-isoproterenol; and Dopamine-SKF82958 (MFG, Cat #C130) at 10 μM. At 4 hours, Bright Glo was added and the assays run on a Topcount. Forskolin is a general activator of cAMP. […] Forskoline and rolipram act synergistically to increase luciferase expression. […]
# [4] = tested on: β-adrenergic receptor (ADβR); assay: Whole splenocytes CreLuc luciferase assay, ADβR agonist; type: cell-based, mouse; conditions: line 64 whole splenocytes, 10 uM, 4 hours
# Experimental: Whole splenocyte preps isolated from CreLuc mice (line 64) were used to show the effects of general cAMP inducers such as forskolin and rolipram, as well as Gs agonists on luciferase expression (FIG. 16). […] The cell suspension was then passed through a 70 um strainer into a 50 ml conical tube. […] Cells were diluted to 2×10^6/ml, and 100 ul of the cells were plated per well in a 96 well white opaque plate. […] At 24 hours, compounds were added to the plates for an additional 4 hours. The general inducers include rolipram (Sigma R6520), forskolin (Sigma F6886). […] The assay was run in triplicate. After 4 hours, 100 μl of BrightGlo (Promega, Madison, Wis., cat#E2610) and the assay was read on a TopCount luminometer. […] The preparation used in the experiment was a whole splenocyte preparation which is a mixed population of cells.
# ADβR [5] = assay: Cardiomyocytes CreLuc luciferase assay, ADβR agonist; type: cell-based, mouse; conditions: cardiomyocytes line 229, 10 μM isoproterenol
# Experimental: The effects of forskolin and rolipram and isoproterenol on luciferase levels in cardiomyocytes was studied (FIG. 35). Cardiomyocytes were isolated from P3 pups from line 229. The cells were cultured in a 96 well plate. Compounds tested include 10 μM forskolin, 5 μM rolipram and 10 μM isoproterenol (ADβR agonist).
# ADRβ = assay: Primary striatal neurons CreLuc luciferase assay, ADβR agonist; type: cell-based, mouse; conditions: striatal neurons line 187, day 4, 10 μM, 3 μM and 1 μM, 5 hours
# From the text: Any cell culture derived from the CreLuc mice may be used to screen compounds for the ability to modulate GPCRs. Luciferase expression was induced in CreLuc striatal neurons by forskolin and rolipram, and Gs agonists for DRD1 and ADβR (FIG. 16). Striatum neurons were isolated from E14 embryos. The assays were run at day 4 in culture. […]. Thus, the transgene is functional in striatal as well cortical neurons (see FIG. 10).
# ADβR [6] = assay: Mouse embryonic fibroblasts CreLuc luciferase assay, ADβR agonist; type: cell-based; conditions: six independent CreLuc lines, 10 μM isoproterenol
# Experimental: The effects of forskolin, rolipram and isoproterenol on luciferase expression in mouse embryonic fibroblasts was investigated (FIG. 33). Mouse embryonic fibroblasts were cultured from E12 embryos from six independent CreLuc lines. Cells were plated at 20,000 cells per well. Compounds tested include 10 μM forskolin, 5 μM rolipram and 10 μM isoproterenol (ADβR agonist).
compound,measurement,setting,value
CC(C)NCC(O)c1ccc(O)c(O)c1 (centres unmarked) [isoproterenol],spinal cord expression of the CRE Luc reporter compared to basal levels,CRE Luc reporter,increases
same,increase of luciferase,ADβR [1],5 fold
same,luciferase expression in hippocampal brain slices,[2],induces luciferase expression levels
same,increased luci levels vs DMSO control,[3],11 fold
same,luciferase versus DMSO only control (t-test),[4],Statistically significant increases
same,increase in luciferase levels,ADβR [5],2 fold
same,luciferase expression,ADRβ,Significant increases
same,luciferase expression in mouse embryonic fibroblasts,ADβR [6],Significant increases were also observed in three of the lines
